Data reported in patent US20190054054A1, “Methods reducing or preventing oxidation of high density lipoprotein (HDL)” (Amarin Pharmaceuticals Ireland Limited, priority 2017, published 2019).
Entries after “also recorded” stand apart in the source; their conditions may differ.

How the values were obtained:
[1] = tested on: sdLDL isolated from human plasma; experiment: Copper-induced sdLDL oxidation for 1 hour (Example 12); assay type: biochemical; conditions: 10.0 μM; sdLDL 200 μg/mL; copper-induced oxidation 1 hour
[2] = Lipid hydroperoxide (LOOH) formation in cholesterol-enriched model membranes under autoxidation (Example 3); assay type: biochemical; conditions: EPA to lipids 1:30, C/P mole ratio 0.6:1
Method: An experiment was conducted to test EPA in model membranes enriched with PUFAs and cholesterol at levels that reproduce disease or high CV-risk conditions (i.e., hypercholesterolemia). […] Levels of lipid hydroperoxides were also measured in cholesterol-enriched membrane prepared in the absence of EPA as a control. […] CHOD-iodide color reagent (stock) was prepared according to a procedure modified from El-Saadani et […], Goher […], Jurgens G. A spectrophotometric assay for lipid peroxides in serum lipoproteins using commercially available reagent. J. Lipid. […] Membrane samples consisting of DLPC±cholesterol were prepared as follows. […] To ensure spectrophotometric readings within the optimum absorbance range, sample volumes taken for measurement of lipid peroxide formation were adjusted for length of peroxidation and range between 100 and 10 μL. […] Absorbances were measured against a CHOD blank at 365 nm using a Beckman DU-640 spectrophotometer. The CHOD colorimetric assay is based on the oxidation of iodide (I^-) by lipid hydroperoxides (LOOH) and proceeds according to the following reaction scheme: […]3^- The quantity of triiodide anion (I3^-) liberated in this reaction is directly proportional to the amount of lipid hydroperoxides present in the membrane sample.

human sdLDL = experiment: Copper-induced sdLDL oxidation, TBARS after 2 hr (Example 6); assay type: biochemical; conditions: for reduction of TBARS levels compared to vehicle-treated controls: 10 μM CuSO4
Method: An experiment to study the antioxidant effect of EPA in small dense […] performed. […] Vitamin E (α-tocopherol) was purchased from Sigma-Aldrich and prepared in ethanol at 1.0 mM (E=[…] cm^-1 at 294 nm) just prior to experimental use. All test compounds were further diluted in ethanol or aqueous buffer as needed. Venous blood was collected from healthy volunteers into vacutainer tubes containing sodium EDTA. Plasma was separated by centrifugation at 3000 g for 25 min at 4° C. and adjusted to a density of 1.020 g/mL with KBr. Triglyceride-rich lipoproteins (TGRL) and LDL fractions were then isolated by sequential centrifugation at 70,000 rpm at 4° C. in a Beckman LE-80 ultracentrifuge using a Beckman 50.4Ti rotor (Beckman Coulter, Inc., Fullerton, Calif.). The TGRL fraction (with a relative density of <1.020) was aspirated from the top of the centrifugate and discarded, leaving an LDL-enriched […] relative density of 1.020 to 1.063). […] The sdLDL subfraction was retained for additional experimentation. Plasma and lipoprotein fractions were maintained at 4° C. and protected from excessive exposure to light. Prior to oxidation experiments, EDTA was removed from the lipoprotein fraction using PD-10 desalting columns (GE Healthcare, Piscataway N.J.). After equilibration of the column with phosphate buffered saline (PBS), 2.5 mL of the lipoprotein fraction was loaded on the column and the flow-through discarded. The lipoprotein was then eluted with 3 mL of PBS. […] Data are presented as mean+S.D. for (N) separate samples or treatment groups. Differences between groups were analyzed using the two-tailed, Student's t-test (for comparisons between only two groups) or ANOVA followed by Dunnett or Student-Newman-Keuls multiple comparisons post-hoc analysis (for comparisons between three or more groups).

human HDL = experiment: Copper-induced oxidation of human HDL, TBARS/MDA (Example 14); assay type: biochemical
Method: LDL and sdLDL subfractions (0.6 mL each) were incubated with either 10 μL vehicle (ethanol) or 10 μL drug stock solution for 30 min to 1 hr at 37° C. Oxidation was initiated by the addition of 10 μM CuSO4. After 2 hr, 100 μL aliquots were removed from each subfraction and combined with 1.0 mL thiobarbituric acid (0.5%), 10 μL trichloroacetic acid (5%), 10 μL BHT (5 mg/mL in methanol), and 10 μL EDTA (5 mM). Sample aliquots were incubated at 100° C. for 20 min and then assayed for the formation of thiobarbituric acid-reactive substances (TBARS), which have a molar absorptivity (c) value of 1.56×10^5 M^−1 cm^−1 at 532 nm and are derived principally from the reaction of thiobarbituric acid with malondialdehyde (MDA), a reactive aldehyde produced by LDL oxidation. Sample TBARS concentrations were determined spectrophotometrically by measuring sample absorbances against a standard curve derived from the hydrolysis of 1,1,3,3-tetramethoxypropane.
A study was performed to test whether EPA, DHA or EPA/DHA have antioxidant effects on high density lipoprotein. HDL was isolated from human plasma by iodixanol gradient ultracentrifugation and adjusted to a final apolipoprotein (apoA1) concentration of 10 mg/mL. Isolated HDL was separated into test samples of 200 μg/mL […] (based on ApoA1), and incubated at 37° C. in the absence (vehicle) or presence of EPA and/or DHA; 5.0 or […] each. Samples were then subjected to copper-induced oxidation (10 μM CuSO4) and, at different time points up to 14 hours, aliquots were removed from each sample and formation of TBARS was determined as explained above in Example 6.

[3] = patients; clinical studies by others; cited from earlier work
[4] = Cholesterol domain formation by small angle x-ray diffraction (Example 3); conditions: PUFA-enriched model membranes, after autoxidation
Method: Cholesterol domain peak intensity was calculated from multiple small angle x-ray diffraction measurements, which are directly proportional to domain levels. […] EPA-treated membranes reduced LOOH levels by greater than 90% (728±30 μM) compared to untreated controls (p<0.001).

[5] = 5 μM (combination: 5 μM each), 6 h

Row | SMILES | reduction of sdLDL oxidation compared to vehicle treatment alone [1] [%] | LOOH level ([2]; after autoxidation 72 hours) [µM] | reduction of LOOH levels compared to untreated controls ([2]; autoxidation 37° C., 72 hours) | reduction of TBARS levels compared to vehicle-treated controls (human sdLDL; 1.0 μM) [%] | reduction of TBARS levels compared to vehicle-treated controls (human sdLDL; 10.0 μM) [%] | MDA formation (human HDL; [5]) [µM] | inhibition of HDL oxidation (antioxidant activity) (human HDL; [5]) [%] | MDA formation (human HDL; 10 μM, 1.0 hr, 10 μM CuSO4) [µM] | inhibition of HDL oxidation (human HDL; 10 μM, 1.0 hr, 10 μM CuSO4) [%] | MDA formation (human HDL; 10 μM, 4 h) [µM] | inhibition of HDL oxidation (human HDL; 10 μM, 4 h) [%] | MDA formation (human HDL; 10 μM, 14 h) [µM] | inhibition of HDL oxidation vs. vehicle (human HDL; 10 μM, 14 h) [%] | triglycerides and oxidized LDL, Lp-PLA2, hsCRP as compared to placebo [3] | cholesterol crystalline domain formation [4] | effect on sdLDL oxidation over the concentration range (human sdLDL; 1.0 μM to 10.0 μM)
1 | CC/C=C\C/C=C\C/C=C\C/C=C\C/C=C\CCCC(=O)O [EPA, cis-5,8,11,14,17-eicosapentaenoic acid] | > 90 | 728 ± 30 | greater than 90% | 13 | 57 | 1.03 ± 0.10 | 81 | 0.384 ± 0.097 | 92 | 0.622 ± 0.066 | 89 | 2.01 ± 0.10 | 64 | significant reductions in levels of oxidized LDL, Lp-PLA2, and hsCRP; also recorded: significant reductions in triglycerides along with reduced levels of markers of inflammation | inhibits cholesterol crystalline domain formation | –
2 | Cc1c(C)c2c(c(C)c1O)CC[C@@](C)(CCC[C@H](C)CCC[C@H](C)CCCC(C)C)O2 [vitamin E, α-tocopherol] | – | – | – | – | 26 | – | – | – | – | – | – | – | – | – | – | did not inhibit sdLDL oxidation except at the highest concentration
